Here are results for 9 molecules from patent publication US20240293365A1, “METHODS FOR TREATING AND AMELIORATING T CELL RELATED DISEASES” (The Regents of the University of California, priority 2021, published 2024).

The assay has as its target T1, ZAP70 kinase (Homo sapiens, UniProt P43403).
T1 construct: The FRET change is mediated by the kinase domain; saFRET biosensor module (FRET pair and sensing unit); expressed in transfected cells; host or cells: HEK293
T1 sequence (P43403 338-600 limits assumed): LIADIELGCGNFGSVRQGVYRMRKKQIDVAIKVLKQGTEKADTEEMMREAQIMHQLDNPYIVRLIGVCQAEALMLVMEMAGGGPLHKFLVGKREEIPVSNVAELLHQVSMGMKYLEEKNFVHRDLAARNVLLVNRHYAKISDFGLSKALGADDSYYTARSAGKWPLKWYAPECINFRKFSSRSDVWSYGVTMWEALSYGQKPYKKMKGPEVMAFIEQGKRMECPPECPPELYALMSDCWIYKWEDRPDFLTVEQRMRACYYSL
The assay can be described thus: saFRET-HTDS: ZAP70 saFRET biosensor screening of a 96-member kinase inhibitor library in HEK293 cells. The class given is cell-based. The note with it: for top 10 selected inhibitors of the saFRET screening: 96-member kinase inhibitor library, 10 μM, FIG. 2D. As for the experimental part: We first screened a 96-member kinase inhibitor library to identify efficient inhibitors of ZAP70 kinase. […] After 40 minutes of incubation with inhibitors, the cells were imaged, and the FRET ratio changes of individual inhibitors compared to the solvent control were calculated to identify promising candidates after this primary endpoint screening (FIG. 2). We further exploited a control biosensor with a kinase-dead domain (saFRETkd) for counter screening to eliminate false-positive hits due to auto-fluorescence or other non-specific effects (1).
C, Schematics of saFRET assay in HEK293 cells.
A, Schematics of the high throughput drug screening platform. First, the cells cultured in 96-well glass-bottom plate were treated either with DMSO or inhibitors from the kinase inhibitor library. After 40 minutes of incubation, the cells were imaged, and the FRET ratio change compared to the control cell was calculated.

As to `NC1CCCN(c2c(/C=C3/SC(=O)NC3=O)cccc2-c2ccccc2)C1` (stereo not drawn) [AZD 1208], the “top 10 selected inhibitors of the saFRET screening” value (shortened to “top 10 selected inhibitors”) was “top 10”.

As to `Cc1[nH]c(/C=C2\C(=O)Nc3ccc(S(=O)(=O)Cc4c(Cl)cccc4Cl)cc32)c(C)c1C(=O)N1CCC[C@@H]1CN1CCCC1` [PHA-665752], the “top 10 selected inhibitors” value was “top 10”.

Consider `COc1ccc2cc(-c3nc(-c4ccc([S+](C)[O-])cc4)[nH]c3-c3ccncc3)ccc2c1` (stereo not drawn) [Tie2 kinase inhibitor], for which the “top 10 selected inhibitors” value was “top 10”.

Consider `COc1cc2c(Nc3ccc(NC(=O)c4ccccc4)cc3)ncnc2cc1OCCCN1CCOCC1` [ZM 447439], for which the “top 10 selected inhibitors” value is “top 10”.

Regarding `Cn1cc(-c2nc(N[C@@H]3CCCC[C@@H]3N)c(F)c3c2C(=O)NC3)cn1` [TAK-659], the “inhibition of ZAP70 kinase domain-mediated activation of saFRET biosensor (FRET ratio change vs solvent control)” value (inhibitor 10 μM, 40 minutes incubation) is on record as “relatively ineffective”.

Consider `CNC(=O)c1ccccc1Nc1nc(Nc2ccc(N3CCOCC3)cc2OC)ncc1Cl` [NVP-TAE226], for which the “top 10 selected inhibitors” value is recorded as “top 10”.

On to `CN[C@@H]1C[C@H]2O[C@@](C)([C@@H]1OC)n1c3ccccc3c3c4c(c5c6ccccc6n2c5c31)C(=O)NC4` [staurosporine], for which the “top 10 selected inhibitors” value was “top 10”.

Consider `CCn1c(=O)c(-c2ccc(-c3cncs3)cc2Cl)cc2cnc(Nc3ccc(N4CCN(C)CC4)cc3)nc21` [FRAX 597], for which the “top 10 selected inhibitors” value is on record as “top 10”.

`NC(=O)Nc1cc(-c2cccc(F)c2)sc1C(=O)N[C@H]1CCCNC1` [AZD 7762]: the “top 10 selected inhibitors” value was “top 10”.
